Measurements published in patent US6316498A, “Fluorine-containing amino acid derivatives” (Taisho Pharmaceutical Co., Ltd., priority 1998, dated 2001).

Tested on: Methamphetamine-induced Hyperactivity in Mice
Assay: Effect on Methamphetamine-induced Hyperactivity in Mice
Type: in vivo, male ICR-strain mice
Settings: for Count (30-minute quantity of movement): 1 mg/kg methamphetamine; for Inhibition rate: vs group given solvent only; for ED50: Mus musculus, po, methamphetamine-induced hyperactivity; for inhibition of methamphetamine-induced hyperactivity (in words): ANOVA P<0.05, LY354740 except 0.01 mg/kg group
Method: (Effect on Methamphetamine-induced Hyperactivity in Mice)
11-12 male ICR-strain mice (body weights 23-32 g, Charles River Japan Inc.) were used for a group. The mice were housed in a transparent cylindrical measurement cage made of vinyl chloride (diameter 30 cm, height 30 cm) and were acclimated to their environment for 90 minutes.
Next, each of the compounds listed in Table 2 was orally administered to the mice, and 30 minutes later, 1 mg/kg methamphetamine was administered […]. 15 minutes later, the 30-minute quantity of movement of the mice was measured by a count, using an automatic movement measurement device (SCANET/SV-10, from Toyo Sangyo Co., Ltd.). Each listed compound was used suspended in a solvent consisting of 0.3% Tween 80 physiological saline solution.
The inhibition rate was determined from the count of the group of mice given solvent only and the count of the group of mice given each prescribed dosage of the compounds listed in Table 2, and the ED50 value was calculated. Statistical processing was done by analysis of variance (ANOVA), followed by Dunnet's test.

Row | Structure (SMILES) | Count (30-minute quantity of movement) (0.01 mg/kg p.o.) | Inhibition rate (0.01 mg/kg p.o.) [%] | Count (30-minute quantity of movement) (0.1 mg/kg p.o.) | Inhibition rate (0.1 mg/kg p.o.) [%] | Count (30-minute quantity of movement) (1 mg/kg p.o.) | Inhibition rate (1 mg/kg p.o.) [%] | ED50 [mg/kg] | inhibition of methamphetamine-induced hyperactivity (in words) (p.o.) | inhibition effect relative to LY354740 for methamphetamine-induced hyperactivity (p.o., vs LY354740, from ED50 values) [times] | Count (30-minute quantity of movement) (10 mg/kg p.o.) | Inhibition rate (10 mg/kg p.o.) [%]
1 | N[C@]1(C(=O)O)[C@H]2[C@@H](C[C@@H]1F)[C@@H]2C(=O)O [Comp. 1, (1S,2S,3S,5R,6S)-2-amino-3-fluorobicyclo[3.1.0]hexane-2,6-dicarboxylic acid] | 9512 ± 3005 | 19.6 | 4291 ± 1283 | 63.7 | 2353 ± 733 | 80.1 | 0.05 | A similar effect is also seen | 17.4 |  | 
2 | N[C@@]1(C(=O)O)CC[C@H]2[C@H](C(=O)O)[C@H]21 [LY354740, (+) - (1S, 2S, 5R, 6S)-2-aminobicyclo[3.1.0]hexane-2,6-dicarboxylic acid] | 12000 ± 3216 | -18.8 | 6975 ± 1489 | 30.9 | 4534 ± 1116 | 55.1 | 0.87 | the methamphetamine-induced hyperactivity was inhibited in a dose-dependent manner |  | 3704 ± 1285 | 63.3
